Experiments:
[1] = test system: A. baumannii CDC0290 (MDR); test: MIC against resistant strains, Tables 5a-5d; type: cell-based; conditions: Acinetobacter baumannii, n = 3
Protocol: (§1) Compounds described herein were evaluated for growth inhibition against a variety of bacterial species, including strains that have developed resistance to common antibacterial treatments, according to the procedure described herein, or by analogous procedures known to those skilled in the art. Resistant bacterial strains used for compound testing include methicillin-resistant S. aureus (MRSA), vancomycin resistant Enterococci (VRE) and various multi-drug resistant (MDR) strains commonly associated with hospital-acquired (nosocomial) infections, including, but not limited to A. baumannii, K. pnuemoniae, and E. cloacae.

[2] = test system: S. aureus ATCC BAA-1717 (MRSA); test: MIC against resistant strains, Tables 5a-5d; type: cell-based; conditions: Staphylococcus aureus, n = 3
Protocol: as §1

[3] = test system: K. pneumoniae CDC0010 (MDR); test: MIC against resistant strains, Tables 5a-5d; type: cell-based; conditions: Klebsiella pneumoniae, n = 3
Protocol: as §1

[4] = test system: A. baumannii 1674627 (MDR); test: MIC against resistant strains, Tables 5a-5d; type: cell-based; conditions: Acinetobacter baumannii, n = 3
Protocol: as §1

[5] = test system: P. aeruginosa CDC0248 (MDR); test: MIC against resistant strains, Tables 5a-5d; type: cell-based; conditions: Pseudomonas aeruginosa, n = 3
Protocol: as §1

[6] = test system: K. pneumoniae ATCC BAA-2473 (MDR); test: MIC against resistant strains, Tables 5a-5d; type: cell-based; conditions: Klebsiella pneumoniae, ATCCBAA2473, n = 3
Protocol: as §1

[7] = test system: E. coli ATCC25922 (WT); test: MIC against resistant strains, Tables 5a-5d; type: cell-based; conditions: Escherichia coli, n = 3
Protocol: as §1

[8] = test system: E. cloacae 1744299 (ESBL); test: MIC against resistant strains, Tables 5a-5d; type: cell-based; conditions: Enterobacter cloacae, n = 3
Protocol: as §1

[9] = test system: E. faecium 1674620 (VRE); test: MIC against resistant strains, Tables 5a-5d; type: cell-based; conditions: Enterococcus faecium, n = 3
Protocol: as §1

[10] = test system: S. aureus ATCC 33591 (MRSA); test: MIC against resistant strains, Tables 5a-5d; type: cell-based; conditions: Staphylococcus aureus, n = 3
Protocol: as §1

[11] = test system: NIH 3T3 (ATCC CRL-1658) cells; test: Cytotoxicity, MTT assay; type: cell-based; conditions: Mus musculus, NIH3T3; NIH 3T3; MTT, 24 hours incubation; read-out: IC50
Protocol: (§2) Before removing the frozen cell stocks from liquid nitrogen, culture medium was pre-warmed to 37° C. The frozen tube was then removed from liquid nitrogen and placed into a 37° C. water bath and shaken gently to thaw the cell stock as quickly as possible. A small portion of the pre-warmed culture medium was added to the cell solution. The cell suspension was then centrifuged at 1000 r/min for 3 minutes. The supernatant was discarded and the cells were resuspended in fresh culture medium.
(§3) NIH 3T3 (ATCC CRL-1658) and Hep G2 (ATCC HB-8065) cells were cultured with DMEM+10% FBS in 100 mm dishes. Cells were lifted for subculture or testing when confluence reached ˜60% by treating with 1× trypsin (incubated for 3 min at 37° C.). J774 (ATCC TIB-67) cells were cultured with DMEM+10% FBS in 100 mm dishes. Cells were lifted for subculture or testing when confluence reached ˜80% using a cell scraper. RAW264.7 (ATCC TIB-71) cells were cultured with DMEM+10% heat-inactivated FBS+1% pen/strep in T75 flasks. Cells were lifted for subculture or testing when confluence reached ˜80% using a cell scraper.
(§4) • 1. Cells were lifted and resuspended in culture medium. The number of cells in the cell suspension was determined using an auto-cell counter: 10 μL of the cell suspension was mixed with 10 μL 1× trypan blue (filtered with 0.2 μm PES filter) and the mixture was loaded onto a cell counting slide. Based on the concentration of viable cells, the cell suspension was further diluted to achieve the desired density. • 2. Cells were seeded in 96 well plates by adding 100 μL final cell suspension column-by-column using a multichannel pipette (5000 cells/well for NIH 3T3, 10000 cells/well for Hep G2, J774 and RAW264.7). The outer wells were block with PBS to reduce the effects of evaporation. One column was filled with only culture medium as a blank. Cells were incubated overnight before adding the test articles. • 3. Test articles were dissolved in 1×PBS (or DMSO) to obtain stocks solution. Stock solutions were pre-warmed before use. […] Serial dilutions (2-fold) of the 10× solutions were made in sterile culture tubes by diluting in 1×PBS (8 dilutions to yield 9 test concentrations). 900 μL of culture media was added to each tube to obtain final drug solution containing 10% PBS (or less than 1% DMSO) for each experimental group. • 4. The original culture medium was gently removed from the 96-well plates using a pipette. 100 μL of the test article solutions prepared in Step 3 were added to rows 2-7 of each column to obtain six replicates for each concentration. Plates were then incubated for 24 hours. • 5. MTT solutions were prepared by dissolving commercial MTT powder in 1×PBS to a concentration of 5 mg/mL. After passing through a 0.22 μm PES filter, the MTT solution was divided into 1 mL portions in sterile centrifuge tubes and stored at −20° C. • 6. MTT stock solutions were removed from the freezer to thaw at room temperature. Before adding MTT solutions, cell cultures were visually inspected and imaged using a microscope (to use as a comparison with MTT results). 10 μL of the 5 mg/mL MTT solution was added to each well and the plate was incubated for 4 hours. • 7. After 4 h incubation, the culture medium/MT solution was removed gently using a pipette. 100 μL of DMSO was added to each well using a multichannel pipette. The 96-well plates were analyzed in a plate reader using the following method: shake for 5 minutes, wait for 30 seconds, and measure absorbance at 570 nm. • 8. Data processing: The average of background Abg was calculated from the blank column. All other data was first treated by subtracting Abg. The average A. and standard deviation Se of each experimental group and the average Ac and standard deviation Sc for control group (with pure culture medium incubation) were then calculated. The cell viability was determined as Ae/Ac×100% and corresponding error as Se/Ae×100%. Significant outliers in any experimental or control group were removed. […]

[12] = test system: J774 (ATCC TIB-67) cells; test: Cytotoxicity, MTT assay; type: cell-based; conditions: Mus musculus, MTT, 24 hours incubation, read-out: IC50
Protocol: as §2, §3, §4

[13] = test system: Hep G2 (ATCC HB-8065) cells; test: Cytotoxicity, MTT assay; type: cell-based; conditions: Homo sapiens, HepG2, 24 h, Hep G2; MTT, 24 hours incubation; read-out: IC50
Protocol: as §2, §3, §4

[14] = test system: K. aerogenes (ATCC 13048); test: MIC broth microdilution method, Table 3; conditions: Klebsiella aerogenes, ATCC13048
[15] = test system: S. epidermidis (ATCC 14990); test: MIC broth microdilution method, Table 3; conditions: Staphylococcus epidermidis, ATCC14990

SMILES | MIC [1] [µg/mL] | MIC [2] [µg/mL] | MIC [3] [µg/mL] | MIC [4] [µg/mL] | MIC [5] [µg/mL] | MIC [6] [µg/mL] | MIC [7] [µg/mL] | MIC [8] [µg/mL] | MIC [9] [µg/mL] | MIC [10] [µg/mL] | IC50 [11] [µg/mL] | IC50 [12] [µg/mL] | IC50 [13] [µg/mL] | MIC [14] [µg/mL] | MIC [15] [µg/mL]
CCCCCC[N+](C)(C)CCCCCCOc1cc(/C=C/c2cc(OCCCCCC[N+](C)(C)CCCCCC)cc(OCCCCCC[N+](C)(C)CCCCCC)c2)cc(OCCCCCC[N+](C)(C)CCCCCC)c1 [Formula E] | 4 | 0.5 | 4 | 4 | 8 | 2 | 1 | 2 | 0.25 | 0.5 | 10.4 | 2.5 | 7.3 | 8 | 4
C[N+](C)(C)CCCCOc1cc(/C=C/c2ccc(/C=C/c3cc(OCCCC[N+](C)(C)C)cc(OCCCC[N+](C)(C)C)c3)cc2)cc(OCCCC[N+](C)(C)C)c1.[I-].[I-].[I-].[I-] [Formula F] | 64 | 2 | 64 | 64 | > 64 | 32 | 8 | 8 | 8 | 2 | > 128 | > 128 | > 1020 | 32 | 2

— US11713318B2, “Short conjugated oligoelectrolytes and uses thereof” (The Regents Of The University Of California, priority 2018, dated 2023)
